Entries after “also recorded” stand apart in the source; their conditions may differ.
How the values were obtained:
[1] = test system: Met activation and downstream signaling to ERK; test: HGF-induced activation of Met and ERK in L3.6p1 cells (western blot); format: cell-based, human; conditions: HGF 10 ng/ml
Experimental: Serum-starved cells (24 hours) were induced with the growth factor HGF (10 ng/mL) at 37° C. for 5 minutes. Where indicated, the cells were treated with peptides (100 ng/ml) prior to induction at 37° C. for 10 minutes (100 ng/mL CD44v6 peptide or control peptide). Following the induction with HGF, cells were washed with ice-cold phosphate-buffered saline (PBS). To detect activated Met and Erk, cells were lysed in sodium dodecyl sulfate (SDS)-sample buffer containing 100 mM dithiothreitol (DTT), boiled and subjected to western blot analysis using antibodies against phospho-Met and ERK. The loading controls were performed on the same blot after stripping (62.5 mM Tris, pH 6.8, 2% SDS, 0.8% DTT) by probing with the Met respectively ERK antibody. Blots were stained using the enhanced chemiluminescence system (Thermo Fisher Scientific, Schwerte, Germany). Bands in western blot analysis were quantified with the program Image J (National Institutes of Health).
To expand the studies to human pancreatic tumors, the highly metastatic human pancreatic carcinoma cells L3.6p1 (Bruns, et al. Neoplasia (1999), 1(1):50-62) were investigated. These cells originate from the […] cells that have been passaged several times in the liver and the pancreas, a step that rendered them more and more metastatic. It was confirmed that Met is dependent on CD44v6 for its activation and signaling in these cells (FIG. 4A). The L3.6p1 cells were treated with HGF in the presence or absence of a human v6 peptide of SEQ ID NO: 2 or SEQ ID NO:6 and Met activation and downstream signaling to ERK was measured.

VEGF = test: Human VEGF in cell culture supernatant of L3.6p1 cells (Quantikine immunoassay); format: cell-based; conditions: 200 ng/ml peptide in the culture medium, 5 days
Experimental: Determination of human HGF and VEGF levels in cell culture medium of L3.6p1 cells were performed using the Quantikine Human HGF Immunoassay and Quantikine Human VEGF Immunoassay from […]. For this purpose 3×10^6 cells were cultured for 5 days in a 15 cm plate in the presence of the respective peptides as indicated. The supernatant (20 ml) was centrifuged (1200 rpm) and the assay was performed according to manufacturer's instructions.

[2] = test system: L3.6p1 pancreatic carcinoma cells; test: Human orthotopic model, L3.6p1 cells in the pancreas of nude mice; format: in vivo, mouse; conditions: dose reduction experiment, 0.2 to 20 μg per injection three times per week for 3 weeks
Met = test: HGF-induced Met activation in HeLa cells (western blot); format: cell-based, human; conditions: HGF 25 ng/ml, peptide 10 minutes before induction
Experimental: FIG. 12: A: Activation of Met and signal transduction induced by HGF depends on CD44v6 in L3.6p1 cells. L3.6p1 cells were treated with the human v6 peptide (human v6 14mer) or the rat v6 peptide as control prior to induction with 10 ng/ml HGF. Activation of Met and ERK was determined in western blot. The numbers refer to the fold induction. The experiment was repeated at least 5 times. B: Activation of c-Met and signal transduction induced by HGF depends on CD44v6 HeLa cells. Starved HeLa cells respectively HT29 cells were incubated with the v6 peptide (human v6 14mer) or a control peptide for 10 minutes at 37° C. and then induced with 25 ng/ml of HGF for the indicated time points. Cells were then either lysed and the lysates were subjected to Western Blot analysis for phospho-Met and Met. C: Activation of c-Met and signal transduction induced by HGF depends on CD44v6 in HT29 cells. HGF-induced c-Met and Erk phosphorylation in HT29 was determined as described above using phospho-specific antibodies. […]
The contribution of CD44v6 to Met signaling in the human epithelial pancreatic cancer cells L3.6p1 (derived from Colo 357), the cervix carcinoma cells HeLa and the colon cancer cells HT29 were analysed using the CD44v6 peptide (v6 14mer; v6 5mer tested as well, data not shown).

ErbB receptors = test: ErbB ligand-induced Erk-kinase phosphorylation in HT29 cells; format: cell-based, human; conditions: 100 ng/ml peptide; for inhibition of EGF-dependent Erk phosphorylation: 20 ng/ml EGF
Experimental: (§1) Serum-starved HT29 cells were pre-incubated for 5 min with 100 ng/ml of a CD44v6-specific peptide (human v6 14mer) or a control peptide. Afterwards the cells were induced with 20 ng/ml of various ErbB ligands as indicated. The cell lysates were resolved by SDS-PAGE. Western-blotting was used to detect ErbB ligands-induced Erk-kinase phosphorylation.
as §1, with “of” for “of a”, “(pep1=14mer, pep2=5mer)” for “(human v6 14mer)”, “EGF or TGFα and lysed.” for “various ErbB ligands as indicated.”, “EGF and TGFα induced” for “ErbB ligands-induced”
For this purpose HT29 cells were serum-starved for 24 hours and pre-treated with the v6-specific or a control peptide. They were then induced with the indicated ErbB ligands. Erk-kinase phosphorylation was used as a read-out for receptor activation. All ligands could activate the Erk-kinase.

## KEQWFGNRWHEGYR [human 14mer, human CD44v6 14mer peptide]
[1]
  inhibition of HGF-induced activation (phosphorylation) of Met and ERK: able to prevent activation of Met and of its downstream target Erk
[1]; listed as SEQ ID NO:6
  inhibition of HGF-induced activation (phosphorylation) of Met and ERK: Phosphorylation of both Met and ERK was inhibited
VEGF
  hVEGF secretion by L3.6p1 cells: can be blocked
[2]
  size / growth of the primary tumor: significant decrease of the size of the primary tumor; also recorded: reduces growth of the primary tumor
Met
  inhibition of HGF-induced activation of Met and Erk: able to prevent activation of Met and of its downstream target Erk
ErbB receptors; listed as human v6 14mer
  inhibition of EGF-dependent Erk phosphorylation: inhibited
ErbB receptors; listed as pep1
  inhibition of EGF-dependent Erk phosphorylation: can be blocked
ErbB receptors; 20 ng/ml ER
  inhibition of ER-dependent Erk phosphorylation: inhibited
ErbB receptors; 20 ng/ml ligand
  inhibition of ErbB receptor induction via TGF-α, BC, Her, HB-EGF or AR (Erk phosphorylation): completely independent of CD44v6
